# Data published in patent publication US8551914B2, “Pesticidal compositions” (Dow AgroSciences, LLC., priority 2011, dated 2013).
# Counter-ions that a name gives are not always drawn.
# Assays:
# Type in all cases: in vivo
# CEW (Helicoverpa zea) = assay: Bioassay on corn earworm (CEW), 128-well diet tray assay; conditions: 50 μg/cm2 on artificial diet, second instar larvae, five to seven days, 25° C.; for mortality at 50 µg/cm2: Helicoverpa zea, 168 h
# Procedure: (§1) Certain molecules disclosed in this document were tested against BAW and CEW using procedures described in the following examples. In the reporting of the results, the “BAW & CEW Rating Table” was used (See Table Section).
# Bioassays on CEW were conducted using a 128-well diet tray assay. one to five second instar CEW larvae were placed in each well (3 mL) of the diet tray that had been previously filled with 1 mL of artificial diet to which 50 μg/cm^2 of the test compound (dissolved in 50 μL of 90:10 acetone-water mixture) had been applied (to each of eight wells) and then allowed to dry. Trays were covered with a clear self-adhesive cover, and held at 25° C., 14:10 light-dark for five to seven days. Percent mortality was recorded for the larvae in each well; activity in the eight wells was then averaged. The results are indicated in the table entitled “Table 1” (See Table Section).
# BAW (Spodoptera exigua) = assay: Bioassay on beet armyworm (BAW), 128-well diet tray assay; conditions: 50 μg/cm2 on artificial diet, second instar larvae, five to seven days, 25° C.; for mortality at 50 µg/cm2: Spodoptera exigua, 168 h
# Procedure: as §1
# Bioassays on BAW were conducted using a 128-well diet tray assay. one to five second instar BAW larvae were placed in each well (3 mL) of the diet tray that had been previously filled with 1 mL of artificial diet to which 50 μg/cm^2 of the test compound (dissolved in 50 μL of 90:10 acetone-water mixture) had been applied (to each of eight wells) and then allowed to dry. Trays were covered with a clear self-adhesive cover, and held at 25° C., 14:10 light-dark for five to seven days. Percent mortality was recorded for the larvae in each well; activity in the eight wells was then averaged. The results are indicated in the table entitled “Table 1” (See Table Section).
# GPA (Myzus persicae) = assay: Bioassay on green peach aphid (GPA), foliar spray on cabbage seedlings; conditions: 200 ppm spray on cabbage seedlings, three days, Abbott corrected % control; for mortality at 200 ppm: Myzus persicae, foliar, 72 h
# Procedure: Certain molecules disclosed in this document were tested against GPA using procedures described in the following example. In the reporting of the results, the “GPA Rating Table” was used (See Table Section).
# Cabbage seedlings grown in 3-inch pots, with 2-3 small (3-5 cm) true leaves, were used as test substrate. The seedlings were infested with 20-50 GPA (wingless adult and nymph stages) one day prior to chemical application. Four pots with individual seedlings were used for each treatment. Test compounds (2 mg) were dissolved in 2 mL of acetone/methanol (1:1) solvent, forming stock solutions of 1000 ppm test compound. The stock solutions were diluted 5× with 0.025% Tween 20 in H2O to obtain the solution at 200 ppm test compound. A hand-held aspirator-type sprayer was used for spraying a solution to both sides of […] leaves until runoff. Reference plants (solvent check) were sprayed with the diluent only containing 20% by volume of acetone/methanol (1:1) solvent. Treated plants were held in a holding room for three days at approximately 25° C. and ambient relative humidity (RH) prior to grading. Evaluation was conducted by counting the number of live aphids per plant under a microscope. Percent Control was measured by using Abbott's correction formula (W. S. Abbott, “A Method of Computing the Effectiveness of an Insecticide” J. Econ. Entomol. 18 (1925), pp. 265-26′7) as follows. Corrected % Control=100*(X−Y)/X • where • X=No. of live aphids on solvent check plants and • Y=No. of live aphids on treated plants
structure (smiles),measurement,setting,value
"CCO[C@@H]1[C@@H](OC)[C@H](C)O[C@@H](ONCc2ccc(-c3ncn(-c4ccc(OC(F)(F)C(F)(F)F)cc4)n3)cc2)[C@@H]1OC [Compound 1, O-((2S,3R,4R,5S,6S)-4-ethoxy-3,5-dimethoxy-6-methyl-tetrahydropyran-2-yl)-N-{4-[1-(4-pentafluoroethyloxy-phenyl)-1H-[1,2,4]triazol-3-yl]-benzyl}-hydroxylamine]",% Mortality CEW 50 μg/cm2,CEW (Helicoverpa zea),A (50-100)
same,% Mortality BAW 50 μg/cm2,BAW (Spodoptera exigua),A (50-100)
same,% Mortality GPA 200 ppm,GPA (Myzus persicae),B (More than 0-Less than 80)
"CO[C@@H]1[C@@H](O)[C@H](C)O[C@@H](ONCc2ccc(-c3ncn(-c4ccc(OC(F)(F)C(F)(F)F)cc4)n3)cc2)[C@@H]1OC [Compound 2, (2S,3S,4R,5R,6S)-4,5-Dimethoxy-2-methyl-6-(N-{4-[1-(4-pentafluoroethyloxy-phenyl)-1H-[1,2,4]triazo1-3-yl]-benzyl}aminooxy)-tetrahydroyran-3-ol]",mortality at 50 µg/cm2,CEW (Helicoverpa zea),50 to 100%
same,mortality at 50 µg/cm2,BAW (Spodoptera exigua),50 to 100%
same,mortality at 200 ppm,GPA (Myzus persicae),0 to 80%
"CO[C@@H]1[C@@H](OC)[C@H](C)O[C@@H](ONCc2ccc(-c3ncn(-c4ccc(OC(F)(F)F)cc4)n3)cc2)[C@@H]1OC [Compound 3, N-{4-[1-(4-trifluoromethoxyphenyl)-1H-[1,2,4]triazol-3-yl]-benzyl}-O-((2S,3R,4R,5S,6S)-3,4,5-trimethoxy-6-methyl-tetrahydro-pyran-2-yl)-hydroxylamine]",% Mortality CEW 50 μg/cm2,CEW (Helicoverpa zea),A (50-100)
same,% Mortality BAW 50 μg/cm2,BAW (Spodoptera exigua),A (50-100)
same,mortality at 200 ppm,GPA (Myzus persicae),0 to 80%
"CO[C@@H]1[C@@H](OC)[C@H](C)O[C@@H](ONCc2ccc(-c3ncn(-c4ccc(OC(F)(F)F)cc4)n3)cc2)[C@@H]1OC.Cl [Compound 4, N-{4-[1-(4-trifluoromethoxyphenyl)-1H-[1,2,4]triazol-3-yl]-benzyl}-O-((2S,3R,4R,5S,6S)-3,4,5-trimethoxy-6-methyl-tetrahydropyran-2-yl)-hydroxylamine hydrochloride]",% Mortality CEW 50 μg/cm2,CEW (Helicoverpa zea),B (More than 0-Less than 50)
same,mortality at 50 µg/cm2,BAW (Spodoptera exigua),50 to 100%
"CCO[C@@H]1[C@@H](OC)[C@H](C)O[C@@H](ONCc2ccc(-c3ncn(-c4ccc(OC(F)(F)C(F)(F)F)cc4)n3)cc2)[C@@H]1OC [Compound 5, O-((2S,3R,4R,5S,6S)-4-Ethoxy-3,5-dimethoxy-6-methyl-tetrahydropyran-2-yl)-N-{4-[1-(4-pentafluoroethyloxy-phenyl)-1H-[1,2,4]triazol-3-yl]-benzyl}-hydroxylamine hydrochloride]",mortality at 50 µg/cm2,CEW (Helicoverpa zea),50 to 100%
same,mortality at 50 µg/cm2,BAW (Spodoptera exigua),50 to 100%
same,mortality at 200 ppm,GPA (Myzus persicae),0%
"CO[C@@H]1[C@@H](OC)[C@H](C)O[C@@H](ON(Cc2ccc(-c3ncn(-c4ccc(OC(F)(F)F)cc4)n3)cc2)C(C)=O)[C@@H]1OC [Compound 6, N-{4-[1-(4-trifluoromethoxyphenyl)-1H-[1,2,4]triazol-3-yl]-benzyl}-N-((2S,3R,4R,5S,6S)-3,4,5-trimethoxy-6-methyl-tetrahydropyran-2-yloxy)-acetamide]",mortality at 50 µg/cm2,CEW (Helicoverpa zea),50 to 100%
same,mortality at 50 µg/cm2,BAW (Spodoptera exigua),50 to 100%
same,mortality at 200 ppm,GPA (Myzus persicae),0 to 80%
"CO[C@@H]1[C@@H](OC)[C@H](C)O[C@@H](ON(C)Cc2ccc(-c3ncn(-c4ccc(OC(F)(F)F)cc4)n3)cc2)[C@@H]1OC [Compound 7, N-Methyl-N-{4-[1-(4-trifluoromethoxyphenyl)-1H-[1,2,4]triazol-3-yl]-benzyl}-O-((2S,3R,4R,5S6S)-3,4,5-trimethoxy-6-methyl-tetrahydro-pyran-2-yl)-hydroxylamine]",mortality at 50 µg/cm2,CEW (Helicoverpa zea),50 to 100%
same,mortality at 50 µg/cm2,BAW (Spodoptera exigua),50 to 100%
same,mortality at 200 ppm,GPA (Myzus persicae),0%
"CO[C@@H]1[C@@H](OC)[C@H](C)O[C@@H](ON(Cc2ccc(-c3ncn(-c4ccc(OC(F)(F)F)cc4)n3)cc2)C(=O)CCC(=O)O)[C@@H]1OC [Compound 8, N-{4-[1-(4-trifluoromethoxyphenyl)-1H-[1,2,4]triazol-3-yl]-benzyl}-N-((2S,3R,4R,5S,6S)-3,4,5-trimethoxy-6-methyl-tetrahydropyran-2-yloxy)-succinamic acid]",mortality at 50 µg/cm2,CEW (Helicoverpa zea),0%
same,mortality at 50 µg/cm2,BAW (Spodoptera exigua),0%
same,mortality at 200 ppm,GPA (Myzus persicae),0%
"COC(=O)CC(=O)N(Cc1ccc(-c2ncn(-c3ccc(OC(F)(F)F)cc3)n2)cc1)O[C@@H]1O[C@@H](C)[C@H](OC)[C@@H](OC)[C@H]1OC [Compound 9, N-{4-[1-(4-trifluoromethoxyphenyl)-1H-[1,2,4]triazol-3-yl]-benzyl}-N-((2S,3R,4R,5S,6S)-3,4,5-trimethoxy-6-methyl-tetrahydropyran-2-yloxy)-malonamic acid methyl ester]",mortality at 50 µg/cm2,CEW (Helicoverpa zea),50 to 100%
same,mortality at 50 µg/cm2,BAW (Spodoptera exigua),50 to 100%
same,mortality at 200 ppm,GPA (Myzus persicae),0 to 80%
